Laboratory results taken from US12077503B2, “Substituted cyclic amides and their use as herbicides” (FMC CORPORATION, priority 2015, dated 2024).

Columns and labels:
Format in all cases: in vivo
[1] = system: ryegrass, Italian (Italian ryegrass, Lolium multiflorum); assay: Test A preemergence; conditions: for Plant response rating, Ryegrass, Italian: 125 g ai/ha, preemergence, 0 to 100 scale (0 no effect, 100 complete control); for Ryegrass, Italian plant response rating (0 to 100 scale, 0 is no effect, 100 is complete control): Preemergence, 500 g ai/ha, visual injury approx. 10 d
Procedure, shortened: (§1)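 Treatment is preemergence as a directed soil spray after planting, or postemergence at the one- to two-leaf stage, with test chemical in a non-phytotoxic solvent mixture plus surfactant. Plants stay in the greenhouse about 10 d before visual injury scoring on a 0 to 100 scale versus untreated controls.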

Kochia (Kochia scoparia) [2] = assay: Test A preemergence; conditions: for Plant response rating, Kochia: 125 g ai/ha, preemergence, 0 to 100 scale (0 no effect, 100 complete control); for Kochia plant response rating (0 to 100 scale, 0 is no effect, 100 is complete control): Preemergence, 500 g ai/ha, visual injury approx. 10 d
Procedure, shortened: as §1

[3] = system: pigweed (Amaranthus retroflexus); assay: Test A preemergence; conditions: for Plant response rating, Pigweed: 125 g ai/ha, preemergence, 0 to 100 scale (0 no effect, 100 complete control); for Pigweed plant response rating (0 to 100 scale, 0 is no effect, 100 is complete control): Preemergence, 500 g ai/ha, visual injury approx. 10 d
[4] = system: giant foxtail (Setaria faberii); assay: Test A preemergence; conditions: for Plant response rating, Foxtail, Giant: 125 g ai/ha, preemergence, 0 to 100 scale (0 no effect, 100 complete control); for Foxtail, Giant plant response rating (0 to 100 scale, 0 is no effect, 100 is complete control): Preemergence, 500 g ai/ha, visual injury approx. 10 d
Procedure, shortened: as §1

[5] = system: ragweed (common ragweed, Ambrosia elatior); assay: Test A preemergence; conditions: for Plant response rating, Ragweed: 125 g ai/ha, preemergence, 0 to 100 scale (0 no effect, 100 complete control); for Ragweed plant response rating (0 to 100 scale, 0 is no effect, 100 is complete control): Preemergence, 500 g ai/ha, visual injury approx. 10 d
Procedure, shortened: as §1

[6] = system: barnyardgrass (Echinochloa crus-galli); assay: Test A preemergence; conditions: for Plant response rating, Barnyardgrass: 125 g ai/ha, preemergence, 0 to 100 scale (0 no effect, 100 complete control); for Barnyardgrass plant response rating (0 to 100 scale, 0 is no effect, 100 is complete control): Preemergence, 500 g ai/ha, visual injury approx. 10 d
Procedure, shortened: as §1

[7] = system: ryegrass, Italian (Italian ryegrass, Lolium multiflorum); assay: Test A postemergence; conditions: postemergence; for Ryegrass, Italian plant response rating: 125 g ai/ha, visual injury rating on 0 to 100 scale (0 no effect, 100 complete control), approx. 10 d; for Plant response rating, Ryegrass, Italian: 500 g ai/ha, 0 to 100 scale, 0 no effect, 100 complete control
Procedure, shortened: as §1

[8] = system: wheat (Triticum aestivum); assay: Test A postemergence; conditions: postemergence; for Wheat plant response rating: 125 g ai/ha, visual injury rating on 0 to 100 scale (0 no effect, 100 complete control), approx. 10 d; for Plant response rating, Wheat: 500 g ai/ha, 0 to 100 scale, 0 no effect, 100 complete control
Procedure, shortened: as §1

[9] = system: blackgrass (Alopecurus myosuroides); assay: Test A postemergence; conditions: postemergence; for Blackgrass plant response rating: 125 g ai/ha, visual injury rating on 0 to 100 scale (0 no effect, 100 complete control), approx. 10 d; for Plant response rating, Blackgrass: 500 g ai/ha, 0 to 100 scale, 0 no effect, 100 complete control
Procedure, shortened: as §1

Kochia (Kochia scoparia) [10] = assay: Test A postemergence; conditions: postemergence; for Kochia plant response rating: 125 g ai/ha, visual injury rating on 0 to 100 scale (0 no effect, 100 complete control), approx. 10 d; for Plant response rating, Kochia: 500 g ai/ha, 0 to 100 scale, 0 no effect, 100 complete control
Procedure, shortened: as §1

[11] = system: Galium (catchweed bedstraw, Galium aparine); assay: Test A postemergence; conditions: postemergence; for Galium plant response rating: 125 g ai/ha, visual injury rating on 0 to 100 scale (0 no effect, 100 complete control), approx. 10 d; for Plant response rating, Galium: 500 g ai/ha, 0 to 100 scale, 0 no effect, 100 complete control
Procedure, shortened: as §1

[12] = system: pigweed (Amaranthus retroflexus); assay: Test A postemergence; conditions: postemergence; for Pigweed plant response rating: 125 g ai/ha, visual injury rating on 0 to 100 scale (0 no effect, 100 complete control), approx. 10 d; for Plant response rating, Pigweed: 500 g ai/ha, 0 to 100 scale, 0 no effect, 100 complete control
Procedure, shortened: as §1

[13] = system: giant foxtail (Setaria faberii); assay: Test A postemergence; conditions: postemergence; for Foxtail, Giant plant response rating: 125 g ai/ha, visual injury rating on 0 to 100 scale (0 no effect, 100 complete control), approx. 10 d; for Plant response rating, Foxtail, Giant: 500 g ai/ha, 0 to 100 scale, 0 no effect, 100 complete control
Procedure, shortened: as §1

[14] = system: ragweed (common ragweed, Ambrosia elatior); assay: Test A postemergence; conditions: postemergence; for Ragweed plant response rating: 125 g ai/ha, visual injury rating on 0 to 100 scale (0 no effect, 100 complete control), approx. 10 d; for Plant response rating, Ragweed: 500 g ai/ha, 0 to 100 scale, 0 no effect, 100 complete control
Procedure, shortened: as §1

[15] = system: barnyardgrass (Echinochloa crus-galli); assay: Test A postemergence; conditions: postemergence; for Barnyardgrass plant response rating: 125 g ai/ha, visual injury rating on 0 to 100 scale (0 no effect, 100 complete control), approx. 10 d; for Plant response rating, Barnyardgrass: 500 g ai/ha, 0 to 100 scale, 0 no effect, 100 complete control
Procedure, shortened: as §1

corn (Zea mays) = assay: Test A postemergence; conditions: postemergence; for Corn plant response rating: 125 g ai/ha, visual injury rating on 0 to 100 scale (0 no effect, 100 complete control), approx. 10 d; for Plant response rating, Corn: 500 g ai/ha, 0 to 100 scale, 0 no effect, 100 complete control
Procedure, shortened: as §1

[16] = system: sedge, umbrella (small-flower umbrella sedge, Cyperus difformis); assay: Test B flooded paddy test; conditions: Flood, 250 g ai/ha; 0 to 100 scale where 0 is no effect and 100 is complete control; 13 to 15 d
Procedure, shortened: (§2)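 Percent control, visually estimated after 13–15 d in the greenhouse on a 0–100 basis, compares treated pots with untreated ones; compound was put into paddy water 3 cm above the soil when plants had two leaves.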

[17] = system: ducksalad (Heteranthera limosa); assay: Test B flooded paddy test; conditions: Flood, 250 g ai/ha; 0 to 100 scale where 0 is no effect and 100 is complete control; 13 to 15 d
Procedure, shortened: as §2

rice (Oryra sativa) = assay: Test B flooded paddy test; conditions: Flood, 250 g ai/ha; 0 to 100 scale where 0 is no effect and 100 is complete control; 13 to 15 d
Procedure, shortened: as §2

[18] = system: barnyardgrass (Echinochloa crus-galli); assay: Test B flooded paddy test; conditions: Flood, 250 g ai/ha; 0 to 100 scale where 0 is no effect and 100 is complete control; 13 to 15 d
Procedure, shortened: as §2

Compound	Plant response rating, Ryegrass, Italian [1]	Ryegrass, Italian plant response rating (0 to 100 scale, 0 is no effect, 100 is complete control) [1]	Plant response rating, Kochia (Kochia (Kochia scoparia) [2])	Kochia plant response rating (0 to 100 scale, 0 is no effect, 100 is complete control) (Kochia (Kochia scoparia) [2])	Plant response rating, Pigweed [3]	Pigweed plant response rating (0 to 100 scale, 0 is no effect, 100 is complete control) [3]	Plant response rating, Foxtail, Giant [4]	Foxtail, Giant plant response rating (0 to 100 scale, 0 is no effect, 100 is complete control) [4]	Plant response rating, Ragweed [5]	Ragweed plant response rating (0 to 100 scale, 0 is no effect, 100 is complete control) [5]	Plant response rating, Barnyardgrass [6]	Barnyardgrass plant response rating (0 to 100 scale, 0 is no effect, 100 is complete control) [6]	Ryegrass, Italian plant response rating [7]	Plant response rating, Ryegrass, Italian [7]	Wheat plant response rating [8]	Plant response rating, Wheat [8]	Blackgrass plant response rating [9]	Plant response rating, Blackgrass [9]	Kochia plant response rating (Kochia (Kochia scoparia) [10])	Plant response rating, Kochia (Kochia (Kochia scoparia) [10])	further results
Cc1cc(C2CNC(=O)C2C(=O)Nc2cccc(F)c2F)ccc1F (stereo not drawn) [Compound 400]	30	40	60	80	60	60	90	100	70	90	90	100	20	90	30	70	60	60	60	70	Galium plant response rating [11]: 40; Plant response rating, Galium [11]: 60; Pigweed plant response rating [12]: 30; Plant response rating, Pigweed [12]: 50; Foxtail, Giant plant response rating [13]: 50; Plant response rating, Foxtail, Giant [13]: 70; Ragweed plant response rating [14]: 40; Plant response rating, Ragweed [14]: 50; Barnyardgrass plant response rating [15]: 90; Plant response rating, Barnyardgrass [15]: 90; Corn plant response rating (corn (Zea mays)): 20; Plant response rating, Corn (corn (Zea mays)): 80; Plant response rating, Sedge, Umbrella [16]: 0; Plant response rating, Ducksalad [17]: 100; Plant response rating, Rice (rice (Oryra sativa)): 20; Plant response rating, Barnyardgrass [18]: 65
Cc1cc(C2CNC(=O)C2C(=O)Nc2ccc(F)c(F)c2F)ccc1F (stereo not drawn) [Compound 401]	0	40	50	80	20	50	80	90	0	50	90	90	30	60	20	70	0	50	50	60	Galium plant response rating [11]: 50; Plant response rating, Galium [11]: 60; Pigweed plant response rating [12]: 0; Plant response rating, Pigweed [12]: 40; Foxtail, Giant plant response rating [13]: 30; Plant response rating, Foxtail, Giant [13]: 70; Ragweed plant response rating [14]: 30; Plant response rating, Ragweed [14]: 50; Barnyardgrass plant response rating [15]: 90; Plant response rating, Barnyardgrass [15]: 90; Corn plant response rating (corn (Zea mays)): 0; Plant response rating, Corn (corn (Zea mays)): 40; Plant response rating, Sedge, Umbrella [16]: 0; Plant response rating, Ducksalad [17]: 100; Plant response rating, Rice (rice (Oryra sativa)): 25; Plant response rating, Barnyardgrass [18]: 70
